Several values for one entry are separate records, joined by “and”; a condition that tells them apart may be missing. Equal entries are not always repeated. After the bases stand the sugars from the 5' end (letter, count) and the backbone: PS all phosphorothioate, else s phosphorothioate and o phosphodiester by linkage. Methylation of C is not given here. e = 2'-O-(2-methoxyethyl) (MOE); k = constrained ethyl (cEt); d = 2'-deoxy (DNA)

This data set addresses IRF5. The settings on record: ASO.

Sequence “GTCTTGACCTCCCGCT (sugars kkdddddddddkdkdk, PS)” had a target mRNA inhibition (KARPAS-229, 4 µM) of 46%.
Still for that read-out and setting: the result for “CCCAATGCAACATCCA (sugars kkkddddddddkekek, PS)” reads 0%.
As for TCTGATATGATACCTA (sugars k3 d10 k3, PS), the target mRNA inhibition reads like this: (A-431, 0.00412 µM) 8%; (A-431, 0.01225 µM) 27%; (A-431, 0.03704 µM) 54%; (A-431, 0.11111 µM) 78%; (A-431, 0.33333 µM) 89%; (A-431, 1 µM) 92%. Besides, the target mRNA inhibition (KARPAS-229, 0.44444 µM) is 59%; the target mRNA inhibition (KARPAS-229, 1.33333 µM) worked out at 68%; the target mRNA inhibition (KARPAS-229, 4 µM) is 63% and 78%; the target mRNA inhibition (KARPAS-229, 12 µM) was 83%.
In the case of “AAGGGCACAGCGCAGG (sugars kekdddddddddeekk, PS)”, the target mRNA inhibition (KARPAS-229, 4 µM) came out at 0%.
For “TTATCTCCGTCCTGGC (sugars kkddddddddddkeke, PS)”, the target mRNA inhibition (KARPAS-229, 4 µM) turned out to be 0%.
Under “KARPAS-229, 4 µM”, “TATTTCTGCTCCAGGT (sugars k2 d8 e4 k2, PS)” gave a target mRNA inhibition of 43%.
Still for that read-out and setting: the result for “CATTCTATGCCTTTTA (sugars kkddddddddkekekk, PS)” reads 56%; that for “TTGTCTAGTGTCATGG (sugars kddddddddddkekek, PS)”, 44%.
Still for that read-out and setting: under “TCACCACTGTGTACCC (sugars k2 d9 e3 k2, PS)” stands 0%; under “CCAATGCAACATCCAT (sugars kkdddddddddkdkdk, PS)”, 0%.
Same read-out and setting: under “AAGGGCACAGCGCAGG (sugars k3 d9 k3 e1, PS)” stands 3%.
Sequence “GCACTGACACAGGCGG (sugars kkddddddddkekekk, PS)” gave a target mRNA inhibition (KARPAS-229, 4 µM) of 0%.
Still for that read-out and setting: the result for “GCTGTCACATCTCCAC (sugars kkkddddddddkdkdk, PS)” reads 35%; that for “AGATGGTGTTATCTCC (sugars kekdddddddddeekk, PS)”, 0%.
On the same count and under the same terms, the result for “ATGAGTCATGGGCTGA (sugars kkkdddddddddkeke, PS)” reads 9%; that for CTAAACCATTCTATGC (sugars k3 d10 k3, PS), 0%; that for CAGGTTCTTGGACTCT (sugars k3 d10 k3, PS), 0%.
Under “KARPAS-229, 4 µM”, “AAGGGCACAGCGCAGG (sugars kkkddddddddkekek, PS)” displayed a target mRNA inhibition of 0%.
On the same count and under the same terms, the result for “TGAGTCTCAAACCAGG (sugars kkddddddddddkeke, PS)” reads 7%; that for “GCTTGGTCTTGACCTC (sugars kekdddddddddeekk, PS)”, 46%; that for “TTATTTCTGCTCCAGG (sugars kkkdddddddddkeke, PS)”, 43%.
Where the note is “KARPAS-229, 4 µM”, “GAAGTGAGTCTCAAAC (sugars kkddddddddkekekk, PS)” registered a target mRNA inhibition of 27%.
On the same count and under the same terms, the result for “TGTCACATCTCCACAT (sugars kdddddddddkekeke, PS)” reads 0%; that for “CCAATTTTGCATTCCA (sugars kkdddddddddkekek, PS)”, 11%.
Same read-out and setting: the result for “CATTCCATATACACAC (sugars k3 d9 k3 e1, PS)” reads 39%; that for “GAGTCTCAAACCAGGG (sugars kddddddddddkekek, PS)”, 0%; that for “CTGTCACATCTCCACA (sugars kkdddddddddkdkdk, PS)”, 6%.
On the same count and under the same terms, under AATTTTGTGACTGTAT (sugars k3 d10 k3, PS) stands 0%; under “GTCTGGCCCTTTTGGA (sugars k3 d9 k3 e1, PS)”, 0%; under TAGGACGAGTTATGGG (sugars k3 d10 k3, PS), 25%.
Regarding “GGTTCTTGGACTCTCA (sugars kdddddddddkekeke, PS)”, for the setting “KARPAS-229, 4 µM”, the target mRNA inhibition was determined as 0%.
Same read-out and setting: under “AGCTTGGTCTTGACCT (sugars kkkddddddddkekek, PS)” stands 3%; under “GTCTTTGAGGTCTGGG (sugars kdddddddddkekeke, PS)”, 33%.

For the origin of these results see the OligoGym collection.
